Where “and” joins values, the source holds several entries; their conditions need not be identical. Equal entries are not always repeated.
Columns and labels:
[1] = system: standard arthritic rat model (collagen induced rheumatoid arthritis-like); test: Histopathology of knees, 2nd study (HSA Sn-117m annexin); format: in vivo; details: for Bone Resorption Score / Cartilage Damage Score / Inflammation Score / Pannus Score: score 0-5, 0 = normal, 5 = severe
Protocol: (§1) In order to test the efficacy of the present invention, a standard arthritic rat model was employed. Specifically, rodents were injected with collagen, which induced a reaction similar to rheumatoid arthritis. […] Two different studies were conducted.
(§2) At around day 14, the animals were sacrificed and tissues sent for histological analyses.

[2] = Biodistribution, 2nd study (HSA Sn-117m annexin) in collagen-induced arthritic rats; format: in vivo, Rat; details: dose 50 (mCi), at sacrifice Day 14
Protocol: as §1, §2

[3] = L knee (injected), ~50 uCi into L synovium
[4] = R knee, ~50 uCi into L synovium
[5] = mean of all animals, both knees, both routes, score 0-5

Substance: Sn-117m Annexin: High specific activity tin-117m attached to annexin V through an aminobenzyl DOTA linker
- Summed Histopathology Scores [1, 3]: 9
- Bone Resorption Score [1, 3]: 1
- Cartilage Damage Score [1, 3]: 2
- Inflammation Score [1, 3]: 5
- Pannus Score [1, 3]: 1
- Summed Histopathology Scores ([1]; L knee, ~50 uCi retro-orbital): 8 and 4
- Cartilage Damage Score ([1]; L knee, ~50 uCi retro-orbital): 1 and 0.5
- Inflammation Score ([1]; L knee, ~50 uCi retro-orbital): 5 and 3
- Pannus Score ([1]; L knee, ~50 uCi retro-orbital): 1 and 0.5
- Summed Histopathology Scores [1, 4]: 9 and 7.5
- Bone Resorption Score [1, 4]: 1 and 0.5
- Cartilage Damage Score [1, 4]: 2 and 1
- Inflammation Score [1, 4]: 5
- Pannus Score [1, 4]: 1
- Cartilage Damage Score ([1]; R knee, ~50 uCi retro-orbital): 0.5
- Pannus Score ([1]; R knee, ~50 uCi retro-orbital): 0.5
- Effectiveness (in words) ([1]; administered directly into the synovium, second study): appears to be effective
- Summed Histopathology Scores, Mean ([1]; mean of all animals, both knees, both routes): 7.04
- Bone Resorption Score, Mean [1, 5]: 0.75
- Cartilage Damage Score, Mean [1, 5]: 1.33
- Inflammation Score, Mean [1, 5]: 4.04
- Pannus Score, Mean [1, 5]: 0.92
- Right Leg (% ID) ([2]; L Synovium injection): 0.1 % ID
- Left leg (% ID) ([2]; Retro-orbital injection): 0.1 % ID
- Right Leg (% ID) ([2]; Retro-orbital injection): 0.1 % ID
